For orientation: Km means the concentration of substrate that gives half-maximal velocity.

This is an account of results in article PMC9217967, “Simultaneous production and sustainable eutectic mixture based purification of narringinase with Bacillus amyloliquefaciens by valorization of tofu wastewater” (Scientific Reports, 2022).

This assay concerns T1, naringinase.
T1 construct: native enzyme from culture, NADES extractive fermentation, Sephadex G-15 and DEAE-Sepharose; a beta-glucosidase activity (prunin to naringenin) may be included
Kind of assay: Lineweaver-Burk; modified Davis assay, residual naringin at […] nm. It counts as biochemical, Bacillus amyloliquefaciens. To be noted: general assay: acetate buffer pH 4.2, 333 K, 60 min; printed unit is not a concentration; printed kcat/Km fits 1.5 × 10^-3 M.

On to `C[C@@H]1O[C@@H](O[C@H]2[C@H](Oc3cc(O)c4c(c3)O[C@H](c3ccc(O)cc3)CC4=O)O[C@H](CO)[C@@H](O)[C@@H]2O)[C@H](O)[C@H](O)[C@H]1O` [Naringin], for which the Km is 1500 µM.
